From ChEMBL document CHEMBL4359868, “New anthranilic acid-incorporating N-benzenesulfonamidophthalimides as potent inhibitors of carbonic anhydrases I, II, IX, and XII: Synthesis, in vitro testing, and in silico assessment” (Eur J Med Chem, 2019)

Key:
Carbonic anhydrase 9 [1] = target: T1, Carbonic anhydrase 9 (Homo sapiens, UniProt Q16790)
Description: Inhibition of recombinant human CA9 preincubated for 15 mins by phenol red dye-based stopped-flow CO2 hydration assay

Carbonic anhydrase 12 = Carbonic anhydrase 12 (Homo sapiens, UniProt O43570)
Description: Inhibition of recombinant human CA12 preincubated for 15 mins by phenol red dye-based stopped-flow CO2 hydration assay

Carbonic anhydrase 1 = Carbonic anhydrase 1 (Homo sapiens, UniProt P00915); assay: Inhibition of recombinant human CA1 preincubated for 15 mins by phenol red dye-based stopped-flow CO2 hydration assay
Sequence of Carbonic anhydrase 1 (P00915 whole entry): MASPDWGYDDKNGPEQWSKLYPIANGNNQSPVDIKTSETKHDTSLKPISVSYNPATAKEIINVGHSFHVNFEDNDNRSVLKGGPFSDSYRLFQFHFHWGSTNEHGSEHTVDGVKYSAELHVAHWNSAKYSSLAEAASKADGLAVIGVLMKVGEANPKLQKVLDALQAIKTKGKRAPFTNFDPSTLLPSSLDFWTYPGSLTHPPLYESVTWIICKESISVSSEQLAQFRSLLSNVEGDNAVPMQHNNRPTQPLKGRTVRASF

Carbonic anhydrase 2 = Carbonic anhydrase 2 (Homo sapiens, UniProt P00918); assay: Inhibition of recombinant human CA2 preincubated for 15 mins by phenol red dye-based stopped-flow CO2 hydration assay
Carbonic anhydrase 9 [2] = target: T1, Carbonic anhydrase 9; details: at 1 µM
Description: Inhibition of recombinant human CA9 at 10^-6 M preincubated for 15 mins by phenol red dye-based stopped-flow CO2 hydration assay

Carbonic anhydrase 9 [3] = target: T1, Carbonic anhydrase 9; details: at 0.01 µM
Description: Inhibition of recombinant human CA9 at 10^-8 M preincubated for 15 mins by phenol red dye-based stopped-flow CO2 hydration assay

Carbonic anhydrase 9 [4] = target: T1, Carbonic anhydrase 9; details: at 0.1 µM
Description: Inhibition of recombinant human CA9 at 10^-7 M preincubated for 15 mins by phenol red dye-based stopped-flow CO2 hydration assay

Carbonic anhydrase 9 [5] = target: T1, Carbonic anhydrase 9; details: 10^-5 M
Description: Inhibition of recombinant human CA9 at 10^-5 M preincubated for 15 mins by phenol red dye-based stopped-flow CO2 hydration assay

Carbonic anhydrase 9 [6] = target: T1, Carbonic anhydrase 9; assay: Inhibition of recombinant human CA9 at 10^-4 M preincubated for 15 mins by phenol red dye-based stopped-flow CO2 hydration assay

Sequence of Carbonic anhydrase 12 (O43570 whole entry): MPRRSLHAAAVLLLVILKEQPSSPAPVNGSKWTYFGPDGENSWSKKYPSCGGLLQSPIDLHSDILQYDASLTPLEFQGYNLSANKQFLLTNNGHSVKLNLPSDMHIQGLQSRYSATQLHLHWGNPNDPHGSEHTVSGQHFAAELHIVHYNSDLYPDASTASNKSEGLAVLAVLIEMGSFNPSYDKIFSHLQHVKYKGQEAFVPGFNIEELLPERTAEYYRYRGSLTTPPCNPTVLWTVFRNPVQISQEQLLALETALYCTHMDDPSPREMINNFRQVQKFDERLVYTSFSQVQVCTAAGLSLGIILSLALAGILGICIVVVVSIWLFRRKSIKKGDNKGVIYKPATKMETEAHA

| SMILES | Ki (Carbonic anhydrase 9 [1]) [µM] | Ki (Carbonic anhydrase 12) [µM] | Ki (Carbonic anhydrase 1) [µM] | also measured |
| --- | --- | --- | --- | --- |
| COc1ccc(NC(=O)c2ccc3c(c2)C(=O)OC3=O)c(C(=O)O)c1 | > 0.1 | > 0.1 | > 0.1 |  |
| COc1ccc(NC(=O)c2ccc3c(c2)C(=O)N(c2ccccc2)C3=O)c(C(=O)O)c1 | 8.2 | > 100 |  | Ki (Carbonic anhydrase 2): > 100 µM |
| O=C(Nc1ccc(Cl)cc1C(=O)O)c1ccc2c(c1)C(=O)N(c1ccccc1)C2=O | 5.5 | > 100 | > 100 |  |
| CCOC(=O)c1ccc(N2C(=O)c3ccc(C(=O)Nc4ccc(OC)cc4C(=O)O)cc3C2=O)cc1 | 0.96 |  |  |  |
| COc1ccc(NC(=O)c2ccc3c(c2)C(=O)N(CCc2ccccc2)C3=O)c(C(=O)O)c1 | 31 | > 100 | > 100 | Ki (Carbonic anhydrase 2): > 100 µM |
| O=C(Nc1ccc(Cl)cc1C(=O)O)c1ccc2c(c1)C(=O)N(Cc1ccccc1)C2=O | 47.3 | > 100 | > 100 | Ki (Carbonic anhydrase 2): > 100 µM |
| COc1ccc(NC(=O)c2ccc3c(c2)C(=O)N(Cc2ccccc2)C3=O)c(C(=O)O)c1 | 41.9 | > 100 | > 100 |  |
| O=C(Nc1ccc(Cl)cc1C(=O)O)c1ccc2c(c1)C(=O)N(CCc1ccccc1)C2=O | 39.6 | > 100 | > 100 |  |

Continued, in another order:

| Ki (Carbonic anhydrase 9 [1]) [µM] | Ki (Carbonic anhydrase 12) [µM] | Ki (Carbonic anhydrase 1) [µM] | SMILES | also measured |
| --- | --- | --- | --- | --- |
| 0.0082 |  |  | COc1ccc(NC(=O)c2ccc3c(c2)C(=O)N(CCc2ccc(S(N)(=O)=O)cc2)C3=O)c(C(=O)O)c1 |  |
| 0.0088 |  |  | COc1ccc(NC(=O)c2ccc3c(c2)C(=O)N(c2ccc(S(N)(=O)=O)cc2)C3=O)c(C(=O)O)c1 |  |
| 0.036 |  |  | COc1ccc(NC(=O)c2ccc3c(c2)C(=O)N(Cc2ccc(S(N)(=O)=O)cc2)C3=O)c(C(=O)O)c1 |  |
| 0.0039 |  |  | NS(=O)(=O)c1ccc(N2C(=O)c3ccc(C(=O)Nc4ccc(Cl)cc4C(=O)O)cc3C2=O)cc1 | inhibition (Carbonic anhydrase 9 [2]): 96%; inhibition (Carbonic anhydrase 9 [3]): 63%; inhibition (Carbonic anhydrase 9 [4]): 84% |
| 0.0073 |  |  | NS(=O)(=O)c1ccc(CCN2C(=O)c3ccc(C(=O)Nc4ccc(Cl)cc4C(=O)O)cc3C2=O)cc1 |  |
| 0.052 |  |  | O=C(Nc1ccc(Cl)cc1C(=O)O)c1ccc2c(c1)C(=O)OC2=O |  |
| 0.53 |  |  | CCOC(=O)c1ccc(N2C(=O)c3ccc(C(=O)Nc4ccc(Cl)cc4C(=O)O)cc3C2=O)cc1 |  |
| 0.0216 |  |  | NS(=O)(=O)c1ccc(CN2C(=O)c3ccc(C(=O)Nc4ccc(Cl)cc4C(=O)O)cc3C2=O)cc1 |  |
| 0.46 |  |  | O=C(O)c1ccc(N2C(=O)c3ccc(C(=O)Nc4ccc(Cl)cc4C(=O)O)cc3C2=O)cc1 | inhibition (Carbonic anhydrase 9 [5]): 85%; inhibition (Carbonic anhydrase 9 [2]): 70%; inhibition (Carbonic anhydrase 9 [6]): 92%; inhibition (Carbonic anhydrase 9 [4]): 17% |
| 0.72 |  |  | COc1ccc(NC(=O)c2ccc3c(c2)C(=O)N(c2ccc(C(=O)O)cc2)C3=O)c(C(=O)O)c1 |  |
